# Laboratory results as given in patent US10597388B2, “Pyridazinone herbicides” (FMC CORPORATION, priority 2014, dated 2020).
# Legend:
# Assay in all cases: Test C greenhouse herbicide test, pre- and postemergence
# Assay type in all cases: in vivo
# [1] = test system: pigweed (Amaranthus retroflexus)
# How it was run: (§1)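 Seeds sown in loam–sand blend treated preemergence; plants in peat-based medium sprayed postemergence at 2–18 cm (1- to 4-leaf stage); chemicals in non-phytotoxic solvent with surfactant. Greenhouse 13–15 d, then visual rating versus controls on 0–100 scale (0 no effect, 100 complete control).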
# [2] = test system: foxtail, giant (giant foxtail, Setaria faberii)
# How it was run: as §1
# corn (Zea mays) = test system: corn (Zea mays)
# How it was run: as §1
# [3] = test system: ryegrass, Italian (Italian ryegrass, Lolium multiflorum)
# How it was run: as §1
# [4] = test system: velvetleaf (Abutilon theophrasti)
# How it was run: as §1
# [5] = test system: wheat (winter wheat, Triticum aestivum)
# How it was run: as §1
# [6] = test system: barnyardgrass (Echinochloa crus-galli)
# How it was run: as §1
# [7] = test system: oilseed rape (Brassica napus)
# How it was run: as §1
# [8] = test system: blackgrass (Alopecurus myosuroides)
# How it was run: as §1
# [9] = test system: lambsquarters (Chenopodium album)
# How it was run: as §1
# [10] = test system: ragweed (common ragweed, Ambrosia elatior)
# How it was run: as §1
# [11] = test system: galium (catchweed bedstraw, Galium aparine)
# How it was run: as §1
# [12] = test system: crabgrass, large (large crabgrass, Digitaria sanguinalis)
# How it was run: as §1
# [13] = test system: nutsedge, yellow (yellow nutsedge, Cyperus esculentus)
# How it was run: as §1
# soybean (Glycine max) = test system: soybean (Glycine max)
# How it was run: as §1
# [14] = Postemergence, 31 g ai/ha, scale 0 to 100 (0 no effect, 100 complete control)
# [15] = Postemergence, 62 g ai/ha, 0 to 100 scale (0 no effect, 100 complete control)
# [16] = Postemergence, 250 g ai/ha, scale 0 to 100, 0 no effect, 100 complete control, 13 to 15 d
# [17] = Preemergence, 31 g ai/ha, scale 0 to 100, 0 is no effect, 100 is complete control
# [18] = Preemergence, 62 g ai/ha, scale 0 to 100, 0 is no effect, 100 is complete control
# [19] = Preemergence, 125 g ai/ha, scale 0 to 100, 0 is no effect, 100 is complete control
# [20] = Preemergence, 250 g ai/ha, scale 0 to 100, 0 no effect, 100 complete control
# [21] = postemergence, 125 g ai/ha, scale 0 to 100, 0 no effect, 100 complete control
structure (smiles),measurement,setting,value
Cc1nn(C)c(=O)c(-c2ccc(Cl)c3ccccc23)c1O [Compound 139],"Plant response rating, Pigweed",[1]; [14],80
same,Pigweed plant response rating,[1]; [15],95
same,"Plant response rating, Pigweed",[1]; [16],98
same,"Plant response rating, Pigweed",[1]; [17],70
same,"Plant response rating, Pigweed",[1]; [18],98
same,"Plant response rating, Pigweed",[1]; [19],100
same,Pigweed plant response rating,[1]; [20],100
same,Pigweed plant response rating,[1]; [21],98
same,"Plant response rating, Foxtail, Giant",[2]; [14],20
same,"Foxtail, Giant plant response rating",[2]; [15],30
same,"Plant response rating, Foxtail, Giant",[2]; [16],60
same,"Plant response rating, Foxtail, Giant",[2]; [17],35
same,"Plant response rating, Foxtail, Giant",[2]; [18],65
same,"Plant response rating, Foxtail, Giant",[2]; [19],85
same,"Foxtail, Giant plant response rating",[2]; [20],95
same,"Foxtail, Giant plant response rating",[2]; [21],30
same,"Plant response rating, Corn",corn (Zea mays); [14],5
same,Corn plant response rating,corn (Zea mays); [15],0
same,"Plant response rating, Corn",corn (Zea mays); [16],15
same,"Plant response rating, Corn",corn (Zea mays); [17],0
same,"Plant response rating, Corn",corn (Zea mays); [18],0
same,"Plant response rating, Corn",corn (Zea mays); [19],10
same,Corn plant response rating,corn (Zea mays); [20],15
same,Corn plant response rating,corn (Zea mays); [21],15
same,"Plant response rating, Ryegrass, Italian",[3]; [14],5
same,"Ryegrass, Italian plant response rating",[3]; [15],10
same,"Plant response rating, Ryegrass, Italian",[3]; [16],60
same,"Plant response rating, Ryegrass, Italian",[3]; [17],95
same,"Plant response rating, Ryegrass, Italian",[3]; [18],100
same,"Plant response rating, Ryegrass, Italian",[3]; [19],100
same,"Ryegrass, Italian plant response rating",[3]; [20],100
same,"Ryegrass, Italian plant response rating",[3]; [21],35
same,"Plant response rating, Velvetleaf",[4]; [14],70
same,Velvetleaf plant response rating,[4]; [15],80
same,"Plant response rating, Velvetleaf",[4]; [16],100
same,"Plant response rating, Velvetleaf",[4]; [17],60
same,"Plant response rating, Velvetleaf",[4]; [18],85
same,"Plant response rating, Velvetleaf",[4]; [19],100
same,Velvetleaf plant response rating,[4]; [20],100
same,Velvetleaf plant response rating,[4]; [21],95
same,"Plant response rating, Wheat",[5]; [14],45
same,Wheat plant response rating,[5]; [15],55
same,"Plant response rating, Wheat",[5]; [16],90
same,"Plant response rating, Wheat",[5]; [17],0
same,"Plant response rating, Wheat",[5]; [18],10
same,"Plant response rating, Wheat",[5]; [19],15
same,Wheat plant response rating,[5]; [20],10
same,Wheat plant response rating,[5]; [21],60
same,"Plant response rating, Barnyardgrass",[6]; [14],25
same,Barnyardgrass plant response rating,[6]; [15],20
same,"Plant response rating, Barnyardgrass","[6]; Postemergence, 125 g ai/ha, scale 0 to 100, 0 is no effect, 100 is complete control",40
same,"Plant response rating, Barnyardgrass",[6]; [16],60
same,"Plant response rating, Barnyardgrass",[6]; [17],20
same,"Plant response rating, Barnyardgrass",[6]; [18],55
same,"Plant response rating, Barnyardgrass",[6]; [19],75
same,Barnyardgrass plant response rating,[6]; [20],95
same,"Plant response rating, Oilseed Rape",[7]; [14],95
same,Oilseed Rape plant response rating,[7]; [15],95
same,"Plant response rating, Oilseed Rape",[7]; [16],95
same,"Plant response rating, Oilseed Rape",[7]; [17],20
same,"Plant response rating, Oilseed Rape",[7]; [18],98
same,"Plant response rating, Oilseed Rape",[7]; [19],98
same,Oilseed Rape plant response rating,[7]; [20],100
same,Oilseed Rape plant response rating,[7]; [21],98
same,"Plant response rating, Blackgrass",[8]; [14],20
same,Blackgrass plant response rating,[8]; [15],50
same,"Plant response rating, Blackgrass",[8]; [16],10
same,"Plant response rating, Blackgrass",[8]; [17],50
same,"Plant response rating, Blackgrass",[8]; [18],55
same,"Plant response rating, Blackgrass",[8]; [19],60
same,Blackgrass plant response rating,[8]; [20],90
same,Blackgrass plant response rating,[8]; [21],60
same,"Plant response rating, Lambsquarters",[9]; [14],98
same,Lambsquarters plant response rating,[9]; [15],95
same,"Plant response rating, Lambsquarters",[9]; [16],100
same,"Plant response rating, Lambsquarters",[9]; [17],100
same,"Plant response rating, Lambsquarters",[9]; [18],90
same,"Plant response rating, Lambsquarters",[9]; [19],95
same,Lambsquarters plant response rating,[9]; [20],98
same,Lambsquarters plant response rating,[9]; [21],100
same,"Plant response rating, Ragweed",[10]; [14],0
same,Ragweed plant response rating,[10]; [15],0
same,"Plant response rating, Ragweed",[10]; [16],0
same,"Plant response rating, Ragweed",[10]; [17],75
same,"Plant response rating, Ragweed",[10]; [18],90
same,"Plant response rating, Ragweed",[10]; [19],95
same,Ragweed plant response rating,[10]; [20],100
same,Ragweed plant response rating,[10]; [21],0
same,"Plant response rating, Galium",[11]; [14],95
same,Galium plant response rating,[11]; [15],95
same,"Plant response rating, Galium",[11]; [16],100
same,"Plant response rating, Galium",[11]; [17],90
same,"Plant response rating, Galium",[11]; [18],90
same,"Plant response rating, Galium",[11]; [19],100
same,Galium plant response rating,[11]; [20],100
same,Galium plant response rating,[11]; [21],100
same,"Plant response rating, Crabgrass, Large",[12]; [14],20
same,"Crabgrass, Large plant response rating",[12]; [15],10
same,"Plant response rating, Crabgrass, Large",[12]; [16],40
same,"Plant response rating, Crabgrass, Large",[12]; [17],5
same,"Plant response rating, Crabgrass, Large",[12]; [18],30
same,"Plant response rating, Crabgrass, Large",[12]; [19],20
same,"Crabgrass, Large plant response rating",[12]; [20],50
same,"Crabgrass, Large plant response rating",[12]; [21],30
same,"Plant response rating, Nutsedge, Yellow",[13]; [14],55
same,"Nutsedge, Yellow plant response rating",[13]; [15],75
same,"Plant response rating, Nutsedge, Yellow",[13]; [16],85
same,"Plant response rating, Nutsedge, Yellow",[13]; [17],65
same,"Plant response rating, Nutsedge, Yellow",[13]; [18],60
same,"Plant response rating, Nutsedge, Yellow",[13]; [19],85
same,"Nutsedge, Yellow plant response rating",[13]; [20],90
same,"Nutsedge, Yellow plant response rating",[13]; [21],70
same,"Plant response rating, Soybean",soybean (Glycine max); [14],45
same,Soybean plant response rating,soybean (Glycine max); [15],55
same,"Plant response rating, Soybean",soybean (Glycine max); [16],60
same,"Plant response rating, Soybean",soybean (Glycine max); [17],25
same,"Plant response rating, Soybean",soybean (Glycine max); [18],35
same,"Plant response rating, Soybean",soybean (Glycine max); [19],60
same,Soybean plant response rating,soybean (Glycine max); [20],80
same,Soybean plant response rating,soybean (Glycine max); [21],65
